Experimental data published in patent US7776904B2, “Azabicyclo [3.1.0] hexylphenyl derivatives as modulators of dopamine D3 receptors” (Glaxo Group Limited, priority 2005, dated 2010).

Target: T1, dopamine D3 receptor (Homo sapiens, UniProt P35462)
T1 construct: expressed in transfected cells; membranes prepared from them
Assay: GTPγS scintillation proximity assay (GTPγS-SPA), CHO_D3 cell membranes
Assay type: biochemical
Conditions: Enantiomer 2 compared with Enantiomer 1 of Example 1
Protocol: Functional potency and intrinsic activity of compounds of this invention can be measured by the following GTPγS scintillation proximity assay (GTPγS-SPA). Cells used in the study are Chinese Hamster Ovary (CHO) Cells.
Compounds may be tested according to two alternative protocols:
a) Cell membranes are prepared as follows. Cell pellets are resuspended in 10 volumes of 50 mM HEPES, 1 mM EDTA pH 7.4, using KOH. On the day the following proteases are added to the buffer just prior to giving the homogenisation buffer.
The cells are homogenised by 2×15 second bursts in a 1 litre Glass Waring blender in a class two biohazard cabinet. The resulting suspension is spun at 500 g for 20 mins (Beckman T21 centrifuge: 1550 rpm). The supernatant is withdrawn with a 25 ml pipette, aliquotted into pre-chilled centrifuge tubes and spun at 48,000 g to pellet membrane fragments (Beckman T1270: 23,000 rpm for 30 mins). The final 48,000 g pellet is resuspended in Homogenisation Buffer, (4× the volume of the original cell pellet). […] Protein content in the membrane preparations is evaluated with the Bradford protein assay.
The final top concentration of test drug is 3 uM in the assay and 11 points serial dilution curves 1:4 in 100% DMSO are carried out using a Biomek FX. […] Assay plates are counted on a Viewlux, 613/55 filter, for 5 min., between 2-6 hours after the final addition. […]

T1 sequence (P35462 whole entry, species assumed): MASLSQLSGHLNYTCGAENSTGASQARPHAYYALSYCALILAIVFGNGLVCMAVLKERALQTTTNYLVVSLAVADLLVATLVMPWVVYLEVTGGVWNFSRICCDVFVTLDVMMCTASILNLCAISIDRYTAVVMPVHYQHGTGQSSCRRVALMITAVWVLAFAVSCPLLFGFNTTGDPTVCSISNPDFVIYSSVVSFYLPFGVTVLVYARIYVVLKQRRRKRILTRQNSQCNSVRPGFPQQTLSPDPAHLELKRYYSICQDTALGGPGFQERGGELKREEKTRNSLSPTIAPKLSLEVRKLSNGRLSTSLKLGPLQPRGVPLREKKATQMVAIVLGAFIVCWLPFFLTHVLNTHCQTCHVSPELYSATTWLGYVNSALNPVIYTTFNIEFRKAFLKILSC

CC(C)c1ccc(S(=O)(=O)Nc2ccc(C34CNCC3C4)cc2)cc1.Cl (single isomer, unassigned; enantiomer 2) [Enantiomer 2, N-{4-[(1R,5R or 1S,5R)-3-azabicyclo[3.1.0]hex-1-yl]phenyl}-4-(1-methylethyl)benzenesulfonamide hydrochloride]
fpki (D3) difference, higher than Enantiomer 1: > 1 log-unit
